Experiments:
MdPh-4′-OGT [1] = biological target: T1, MdPh-4′-OGT (Malus domestica, UniProt A7MAS5); assay: Substrate specificity, sugar donor and cation dependence of purified recombinant MdPh-4′-OGT; assay type: biochemical, Malus x domestica; details: 50 μM substrate, 2 mM UDP-glucose, 500 ng enzyme, 1 hour, pH 7.5; LC-MS
T1 construct: made in house; host or cells: E. coli BL21 (DE3)
T1 sequence (A7MAS5 1-481): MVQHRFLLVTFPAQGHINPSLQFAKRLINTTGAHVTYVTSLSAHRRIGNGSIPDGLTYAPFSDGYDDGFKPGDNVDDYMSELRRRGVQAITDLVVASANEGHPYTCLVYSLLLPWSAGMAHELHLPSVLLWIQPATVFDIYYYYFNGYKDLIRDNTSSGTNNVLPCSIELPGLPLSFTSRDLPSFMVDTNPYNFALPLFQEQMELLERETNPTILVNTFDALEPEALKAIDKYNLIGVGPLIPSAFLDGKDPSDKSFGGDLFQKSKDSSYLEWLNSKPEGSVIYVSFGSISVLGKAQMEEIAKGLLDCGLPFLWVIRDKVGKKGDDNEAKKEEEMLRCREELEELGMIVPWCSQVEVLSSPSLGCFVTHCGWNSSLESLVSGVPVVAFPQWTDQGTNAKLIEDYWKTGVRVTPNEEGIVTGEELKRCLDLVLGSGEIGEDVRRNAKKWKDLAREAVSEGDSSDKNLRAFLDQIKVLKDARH
Protocol: Substrates analyzed are indicated.
(§1) Reactions were performed at 30° C. for 60 minutes and terminated by addition of 10 μL of 10% TCA (v/v). Two microliters of the reaction products were used for analysis and identification by LC-UV-MS. All assay series were carried out at least in triplicate.
The analytical column was a Zorbax Extend-C18 Rapid Resolution HT column (2.1×50.0 mm, 1.8 μm, Agilent Technologies, Waldbronn, Germany). The gradient elution mobile phase consisted of H2O with 0.1% (v/v) formic acid (eluent A) and acetonitrile containing 0.1% (v/v) formic acid (eluent B). The column was equilibrated with 10% B for 1.5 minutes. […] The flow rate of the mobile phase was 0.3 ml/min and the column oven temperature was 40° C. Eluting compounds were subjected to a dual-sprayer orthogonal ESI source, with one sprayer for analytical flow and one for the reference compound (Agilent Technologies, Santa Clara, USA). The ESI source was operated in negative mode with the following settings: gas temp of 300° C. with a flow of 8 L/min and nebulizer set to 35 psig. VCap set to 3000 V, the fragmentor to −140 V and the skimmer to 65 V. Scan mode of the mass detector was applied (100-1700 m/z) with a rate of 1 spectra/sec. The [M-H] ions of target compounds were detected using the ‘find compound by formula’ function and analyzed by Masshunter qualitative and quantitative analysis software version B.07.00 (Agilent technologies). Compounds were identified by comparison of exact mass and retention time to purchased standards.

MdPGT1 = MdPGT1 (Malus domestica, UniProt B3TKC8); details: Jugde et al. (2008)
Malus Ph-2′-OGT = assay: Km for phloretin of Malus Ph-2′-OGT (literature) compared with MdPh-4′-OGT; assay type: biochemical; details: Gosch C. et al. (2010)
MdPh-4′-OGT [2] = biological target: T1, MdPh-4′-OGT; assay: Kinetic parameters of His-tag purified recombinant MdPh-4′-OGT (standard glucosyltransferase enzyme assay, LC-MS); assay type: biochemical, Malus x domestica
Protocol: as §1
The UPLC-MS analysis was carried out on an Agilent 1290 Infinity series liquid chromatograph coupled with an Agilent 1290 Infinity DAD and Agilent 6224 Accurate Mass Time of Flight mass spectrometer (MS) (Agilent Technologies, Santa Clara, USA). The analytical column was a Zorbax Extend-C18 Rapid Resolution HT column (2.1×50.0 mm, 1.8 μm, Agilent Technologies, Waldbronn, Germany). The gradient elution mobile phase consisted of H2O with 0.1% (v/v) formic acid (eluent A) and acetonitrile containing 0.1% (v/v) formic acid (eluent B). The column was equilibrated with 10% B for 1.5 minutes. Eluent B was then increased to 95% till 12 minutes, and restored to 10% by 15 minutes. The flow rate of the mobile phase was 0.3 ml/min and the column oven temperature was 40° C. Eluting compounds were subjected to a dual-sprayer orthogonal ESI source, with one sprayer for analytical flow and one for the reference compound (Agilent Technologies, Santa Clara, USA). The ESI source was operated in negative mode with the following settings: gas temp of 300° C. with a flow of 8 L/min and nebulizer set to 35 psig. VCap set to 3000 V, the fragmentor to −140 V and the skimmer to 65 V. Scan mode of the mass detector was applied (100-1700 m/z) with a rate of 1 spectra/sec. The [M-H] ions of target compounds were detected using the ‘find compound by formula’ function and analyzed by Masshunter qualitative and quantitative analysis software version B.07.00 (Agilent technologies). Compounds were identified by comparison of exact mass and retention time to purchased standards.

MdPh-4′-OGT [3] = biological target: T1, MdPh-4′-OGT; assay: pH and temperature optima of MdPh-4′-OGT activity with phloretin and UDP-glucose; assay type: biochemical, Malus x domestica
Protocol: as §1
All data included represent an average of at least three independent experiments. Determination of the pH optima within the range of 4.0-10.0 by mixing the stock buffer of 0.5 M citric acid and 1 M dibasic sodium phosphate solutions (for pH 4.0-7.0) and Tris-HCl (for pH 8.0-10.0), and the temperature optima within the range of 20° C.-45° C.

O=C(CCc1ccc(O)cc1)c1c(O)cc(O[C@@H]2O[C@H](CO)[C@@H](O)[C@H](O)[C@H]2O)cc1O [trilobatin, 1-Propanone, 1-(4-(beta-D-glucopyranosyloxy)-2,6-dihydroxyphenyl)-3-(4-hydroxyphenyl)]
Activity / product formation with the compound as acceptor substrate (MdPh-4′-OGT [1]): production of the corresponding di-O-glucosides

O=c1c(O)c(-c2ccc(O)c(O)c2)oc2cc(O)cc(O)c12 [quercetin]
Activity / product formation with the compound as acceptor substrate (MdPh-4′-OGT [1]): production of three different products

O=C(O)/C=C/c1ccc(O)c(O)c1 [caffeic acid]
Activity / product formation with the compound as acceptor substrate (MdPh-4′-OGT [1]): no products were detected

O=C(CCc1ccc(O)cc1)c1c(O)cc(O)cc1O [Phloretin, 3-(4-hydroxyphenyl)-1-(2,4,6-trihydroxyphenyl)-1-propanone]
Km for phloretin, times lower than with MdPh-4′-OGT (MdPGT1): 41 times | Activity / product formation with the compound as acceptor substrate (MdPh-4′-OGT [1]): highest activity | Km for phloretin, times higher than with MdPh-4′-OGT (Malus Ph-2′-OGT): 3 times | kcat (MdPh-4′-OGT [2]; named substrate varied, co-substrate fixed): 9.94 ± 1.23 s^−1 (×10^−2) | Vmax (MdPh-4′-OGT [2]; named substrate varied, co-substrate fixed, 500 ng enzyme): 1.86 ± 0.30 pkat μg^−1 protein | Vmax (MdPh-4′-OGT [2]; named substrate varied, co-substrate fixed, 500 ng enzyme, listed as phloretin): 1.86±0.30 pkat μg^−1 protein | Km (MdPh-4′-OGT [2]; named substrate varied: phloretin 0.5-500 μM at 2 mM UDP-glucose, UDP-glucose 0.01-50 mM at 30 μM phloretin, 500 ng enzyme): 26.1 ± 6.97 µM

O=C(/C=C/c1ccc(O)c(O)c1)c1ccc(O)cc1O [butein]
Activity / product formation with the compound as acceptor substrate (MdPh-4′-OGT [1]): production of the corresponding O-glucoside

O=C(O)/C=C/c1ccc(O)cc1 [4-coumaric acid]
Activity / product formation with the compound as acceptor substrate (MdPh-4′-OGT [1]): no products were detected

O=C1C[C@@H](c2ccc(O)cc2)Oc2cc(O)cc(O)c21 [naringenin]
Activity / product formation with the compound as acceptor substrate (MdPh-4′-OGT [1]): formation of the corresponding naringenin-7-O-glucoside

B1: MdPh-4′-OGT: His-tagged recombinant apple glycosyltransferase that glycosylates phloretin with UDP-glucose to form trilobatin (protein, listed as Malus domestica)
chain: MVQHRFLLVTFPAQGHINPSLQFAKRLINTTGAHVTYVTSLSAHRRIGNGSIPDGLTYAPFSDGYDDGFKPGDNVDDYMSELRRRGVQAITDLVVASANEGHPYTCLVYSLLLPWSAGMAHELHLPSVLLWIQPATVFDIYYYYFNGYKDLIRDNTSSGTNNVLPCSIELPGLPLSFTSRDLPSFMVDTNPYNFALPLFQEQMELLERETNPTILVNTFDALEPEALKAIDKYNLIGVGPLIPSAFLDGKDPSDKSFGGDLFQKSKDSSYLEWLNSKPEGSVIYVSFGSISVLGKAQMEEIAKGLLDCGLPFLWVIRDKVGKKGDDNEAKKEEEMLRCREELEELGMIVPWCSQVEVLSSPSLGCFVTHCGWNSSLESLVSGVPVVAFPQWTDQGTNAKLIEDYWKTGVRVTPNEEGIVTGEELKRCLDLVLGSGEIGEDVRRNAKKWKDLAREAVSEGDSSDKNLRAFLDQIKVLKDARH
modifications: His tag
notes: His-tagged recombinant apple glycosyltransferase that glycosylates phloretin with UDP-glucose to form trilobatin
Activation energy (MdPh-4′-OGT [3]; calculated from temperature dependence): 4.369 kcal/mol | Activity remaining at pH 6.0 (MdPh-4′-OGT [3]; pH 6.0): 17% | Activity remaining at pH 10.0 (MdPh-4′-OGT [3]; pH 10.0): less than 5% | pH of maximum activity (MdPh-4′-OGT [3]; pH range 4.0-10.0 tested): 9.0 pH | pH range of significant activity (MdPh-4′-OGT [3]; pH range 4.0-10.0 tested): 7.0-9.0 pH
